Measured values taken from PubChem BioAssay AID1963858 (Molecular Pharmacology Branch, DTP, NCI, 2024).
Where “and” joins values, the source holds several entries; their conditions need not be identical. Equal values may be shown once.

Tested on: HOP-62 multicell spheroids with HUVEC/MSC, viability
Experiment: Anticancer human tumor HOP-62 cell line growth inhibition [KRAS2];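 also: viability read after a week of compound exposure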;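 as to viability, T/C: 100% = DMSO vehicle-treated spheroids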
Details: for viability, T/C: stronger effect = lower value
Method in brief: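 KRAS-mutant tumor cells were grown as spheroids with HUVEC endothelial cells and human MSCs as stroma. Targeted agents were tested alone and with KRAS pathway inhibitors. Doses started at or near clinical Cmax, or 10 microM, descending half-log.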

[1] = curve of first compound, second compound 0.1 µM
[2] = curve of first compound, second compound 0.316 µM
[3] = curve of first compound, second compound 1 µM
[4] = curve of first compound, second compound 3.16 µM
[5] = curve of first compound, second compound 10 µM
[6] = second compound 0.1 µM, first compound 0.0316 µM
[7] = second compound 0.1 µM, first compound 0.1 µM
[8] = second compound 0.1 µM, first compound 0.316 µM
[9] = second compound 0.1 µM, first compound 1 µM
[10] = second compound 0.1 µM, first compound 3.16 µM
[11] = second compound 0.1 µM, first compound 10 µM
[12] = second compound 0.316 µM, first compound 0.0316 µM
[13] = second compound 0.316 µM, first compound 0.1 µM
[14] = second compound 0.316 µM, first compound 0.316 µM
[15] = second compound 0.316 µM, first compound 1 µM
[16] = second compound 0.316 µM, first compound 3.16 µM
[17] = second compound 0.316 µM, first compound 10 µM
[18] = second compound 1 µM, first compound 0.0316 µM
[19] = second compound 1 µM, first compound 0.1 µM
[20] = second compound 1 µM, first compound 0.316 µM
[21] = second compound 1 µM, first compound 1 µM
[22] = second compound 1 µM, first compound 3.16 µM
[23] = second compound 1 µM, first compound 10 µM
[24] = second compound 3.16 µM, first compound 0.0316 µM
[25] = second compound 3.16 µM, first compound 0.1 µM
[26] = second compound 3.16 µM, first compound 0.316 µM
[27] = second compound 3.16 µM, first compound 1 µM
[28] = second compound 3.16 µM, first compound 3.16 µM
[29] = second compound 3.16 µM, first compound 10 µM
[30] = second compound 10 µM, first compound 0.0316 µM
[31] = second compound 10 µM, first compound 0.1 µM
[32] = second compound 10 µM, first compound 0.316 µM
[33] = second compound 10 µM, first compound 1 µM
[34] = second compound 10 µM, first compound 3.16 µM
[35] = second compound 10 µM, first compound 10 µM

SMILES	IC50 [1]	IC50 [2]	IC50 [3]	IC50 [4]	IC50 [5]	viability, T/C [6]	viability, T/C [7]	viability, T/C [8]	viability, T/C [9]	viability, T/C [10]	viability, T/C [11]	viability, T/C [12]	viability, T/C [13]	viability, T/C [14]	viability, T/C [15]	viability, T/C [16]	viability, T/C [17]	viability, T/C [18]	viability, T/C [19]	viability, T/C [20]	further results
CC1(C)CCC(CN2CCN(c3ccc(C(=O)NS(=O)(=O)c4ccc(NCC5CCOCC5)c([N+](=O)[O-])c4)c(Oc4cnc5[nH]ccc5c4)c3)CC2)=C(c2ccc(Cl)cc2)C1 + C=CC(=O)N1CCN(c2nc(=O)n(-c3c(C)ccnc3C(C)C)c3nc(-c4c(O)cccc4F)c(F)cc23)C(C)C1	< 31.6 nM	2160 nM	2010 nM	3670 nM	< 31.6 nM	46.2%	49.4%	50.5%	43.1%	39.1%	12.1%	53.4%	51.9%	57.7%	56.2%	47.1%	20.5%	55%	57.1%	50.8%	viability, T/C [21]: 52.6%; viability, T/C [22]: 48%; viability, T/C [23]: 13%; viability, T/C [24]: 64.9%; viability, T/C [25]: 58.9%; viability, T/C [26]: 48.7%; viability, T/C [27]: 54.4%; viability, T/C [28]: 55.7%; viability, T/C [29]: 12.2%; viability, T/C [30]: 43.7%; viability, T/C [31]: 46.5%; viability, T/C [32]: 41.4%; viability, T/C [33]: 41.5%; viability, T/C [34]: 32%; viability, T/C [35]: 16.2%
C=CC(=O)N1CCN(c2nc(=O)n(-c3c(C)ccnc3C(C)C)c3nc(-c4c(O)cccc4F)c(F)cc23)C(C)C1 (stereo not drawn)																					viability, T/C (compound 3.16 µM): 65.2% [middle of 17 runs]; IC50 (compound alone, run of 07/19/2021): > 10000 nM and 4340 nM; IC50 (compound alone, run of 07/26/2021): 8.23 µM [middle of 5 runs]
O=C(c1cc(Cc2n[nH]c(=O)c3ccccc23)ccc1F)N1CCN(C(=O)C2CC2)CC1 + C=CC(=O)N1CCN(c2nc(=O)n(-c3c(C)ccnc3C(C)C)c3nc(-c4c(O)cccc4F)c(F)cc23)C(C)C1	39.7 nM	271 nM	708 nM	249 nM	< 31.6 nM	50.3%	47.2%	37.5%	35.6%	27.7%	27.4%	64%	61.2%	45.5%	40.4%	37.6%	29.3%	59.3%	54.7%	53.2%	viability, T/C [21]: 49.8%; viability, T/C [22]: 40.8%; viability, T/C [23]: 31.6%; viability, T/C [24]: 58.9%; viability, T/C [25]: 50.5%; viability, T/C [26]: 48.3%; viability, T/C [27]: 47.8%; viability, T/C [28]: 42.1%; viability, T/C [29]: 37.4%; viability, T/C [30]: 52%; viability, T/C [31]: 46.1%; viability, T/C [32]: 48.8%; viability, T/C [33]: 46.7%; viability, T/C [34]: 43.2%; viability, T/C [35]: 36.8%
CCNC(=O)CC1N=C(c2ccc(Cl)cc2)c2cc(OC)ccc2-n2c(C)nnc21 (stereo not drawn) + COc1cc2nc(C)nc(NC(C)c3cc(N)cc(C(F)(F)F)c3)c2cc1OC1CCOC1	271 nM	189 nM	193 nM	60.8 nM	< 31.6 nM	90.5%	75.9%	44.3%	29.4%	21.9%	18.2%	90.4%	65%	37.8%	23.7%	19%	18.5%	89.2%	59.8%	46.9%	viability, T/C [21]: 17.5%; viability, T/C [22]: 16.9%; viability, T/C [23]: 14.4%; viability, T/C [24]: 60.1%; viability, T/C [25]: 41.7%; viability, T/C [26]: 29.1%; viability, T/C [27]: 17.2%; viability, T/C [28]: 15.5%; viability, T/C [29]: 15.2%; viability, T/C [30]: 43%; viability, T/C [31]: 35.9%; viability, T/C [32]: 29.3%; viability, T/C [33]: 15.8%; viability, T/C [34]: 9.2%; viability, T/C [35]: 4.11%
CC1(C)CCC(CN2CCN(c3ccc(C(=O)NS(=O)(=O)c4ccc(NCC5CCOCC5)c([N+](=O)[O-])c4)c(Oc4cnc5[nH]ccc5c4)c3)CC2)=C(c2ccc(Cl)cc2)C1 + CC1OCC2(CCN(c3cnc(Sc4ccnc(N)c4Cl)c(N)n3)CC2)C1N	3720 nM	3280 nM	1310 nM	< 31.6 nM	< 31.6 nM	76.5%	73%	70%	72%	54.3%	17.2%	72.3%	62.2%	68.3%	67.6%	51.1%	12.6%	62.3%	54.4%	52%	viability, T/C [21]: 50.1%; viability, T/C [22]: 44.6%; viability, T/C [23]: 10.6%; viability, T/C [24]: 47.9%; viability, T/C [25]: 45%; viability, T/C [26]: 36.6%; viability, T/C [27]: 26.7%; viability, T/C [28]: 18.1%; viability, T/C [29]: 10.7%; viability, T/C [30]: 37.5%; viability, T/C [31]: 32.9%; viability, T/C [32]: 32%; viability, T/C [33]: 26.6%; viability, T/C [34]: 26.5%; viability, T/C [35]: 6.62%
